# Legend:
# [1] = target: T1, AAK1 (30-330) protein (Homo sapiens, UniProt Q2M2I8); test: AAK1 kinase assay (ADP generated, detected by HPLC); format: biochemical; conditions: 3.5 nM AAK1, 22 µM ATP, 25°C, 3 h
# T1 construct: (His)6x (N); TEV protease cleavage site (N); made in house; host or cells: Escherichia coli BL21(DE3)
# Description: Experimental objective: The objective of this test example is to test the effect of compounds on AAK1 kinase function.
# Background principle: AAK1 phosphorylates the threonine residue in the micro-subunit of AP2 (AP2M1). In this process, ATP provides phosphate groups to generate ADP. Therefore, the activity of AAK1 kinase can be evaluated by detecting the amount of ADP generated.
# (§1) Expression of AAK1 (30-330) protein: The AAK1 sequence (residues 30-330) was cloned into the pET24N vector with an N-terminal (His)6x tag and a tobacco etch virus (TEV) protease cleavage site. The constructed vector was transformed into Escherichia coli BL21(DE3). When the bacteria were cultured with shaking to reach an OD value of 0.6, 1 mM IPTG was added. […] The bacterial cells were collected and subjected to ultrasonic disruption. The supernatant was obtained by centrifugation, and the protein was purified using Ni-NTA. After dialysis, the concentration and purity of the protein were determined.
# The reaction mixture was incubated in a metal bath at 25°C for 3 h. The reaction was terminated by adding 1% SDS, and the amount of ADP generated was detected by HPLC. IC50 values were calculated using GraphPad software.
# [2] = target: T1, AAK1 (30-330) protein; test: CETSA test of binding ability to AAK1 protein (Western blot)
# Protocol: Experimental objective: To detect the binding ability of compounds to AAK1 protein by means of a CETSA experiment.
# Background principle: The CETSA experiment is a molecular detection means for measuring the affinity between drugs and target proteins. […] When a candidate drug is co-incubated with a target protein, if the candidate drug is an inhibitor of AAK1, it can bind to AAK1. […] On the contrary, the stability of the AAK1 protein after heating will be poorer, and the amount of the detected protein will be lower. In this way, the binding ability of the drug to the target protein can be evaluated, which is used for the screening of AAK1 protein inhibitors.
# as §1
# CETSA sample preparation: Samples were incubated with candidate drugs, control drugs, and control reagents separately for 30 minutes. Each group of samples was heated at approximately 10 pre-set temperature points. After being returned to room temperature, the samples were centrifuged at 20000 g, and the supernatants were collected. Protein samples were denatured by heating at 100°C for 10 minutes with a sample buffer. After the samples were returned to room temperature, Western blot detection was performed on them; the protein loading amount was controlled at 20 µg. […] The same operations were followed, and Western blot detection was conducted. Protein electrophoresis: The voltage for the stacking gel was set at 60 V, and that for the separating gel was set at 120 V. After electrophoresis, electrotransfer was initiated. Electrotransfer conditions were set at 250 mA for 2 h. Blocking with 5% BSA was performed for 1 h. A specific primary antibody was added, and incubation was carried out overnight at 4°C on a shaker. Washing with TBST was conducted 4 times, with 2.5 minutes each time. A secondary antibody was incubated on a shaker at room temperature for 1 h. Washing with TBST was conducted 4 times, with 2.5 minutes each time. ECL was used for development to detect the expression levels of AAK1 protein in different groups and at each temperature point. Western blot bands were processed and converted using Image J and GraphPad software to calculate EC50.
# [3] = Pharmacokinetic test in SD rats; conditions: rat, plasma, po, 3 mg/kg
# Protocol: Experimental objective: The objective of this experimental example is to test the pharmacokinetic profile of compounds in SD rats.
# Route of administration: The animals were weighed before administration, and the dose was calculated based on their body weight. Administration was performed via intravenous injection and oral gavage.
# Blood collection time points: After administration, for IV group: 0.083 h, 0.25 h, 0.5 h, 1 h, 2 h, 4 h, 8 h, and 24 h; for PO group: 0.25 h, 0.5 h, 1 h, 2 h, 4 h, 6 h, 8 h, and 24 h. Blood was collected via the jugular vein, with approximately 0.2 mL collected for each sample. The blood samples were anticoagulated with K2-EDTA and placed on ice after collection.
# Plasma sample processing: After collection, the blood samples were placed on ice and centrifuged within 1 hour to separate plasma (centrifugation conditions: 6800g, 6 minutes, 2-8°C). The plasma samples were stored in a -80°C refrigerator before analysis.
# Result analysis: Pharmacokinetic parameters were calculated using Phoenix WinNonlin 7.0 based on the plasma concentration data at different time points.
# [4] = target: T2, AAK1 (Homo sapiens, UniProt Q2M2I8); test: Effect on AP2M1 phosphorylation in 293T cells co-transfected with AAK1 and AP2M1 (Western blot, anti-p-AP2M1); format: cell-based; conditions: p-AP2M1 level, incubated 3 h
# T2 construct: HA; expressed in transfected cells; host or cells: 293T cells
# Description: Experimental objective: The objective of this test example is to determine the effect of compounds on AP2M1 phosphorylation in cells.
# Background principle: Adaptor-associated kinase 1 (AAK1), also known as AP2-associated kinase 1, is a 104 kDa serine/threonine kinase. AAK1 interacts with the adaptor protein 2 (AP2) complex and phosphorylates the threonine residue in the micro-subunit of AP2 (AP2M1), thereby increasing its binding affinity for certain tyrosine-based or dileucine-based sorting signals of some membrane receptors. The inhibitory effect of compounds on AAK1 was evaluated by detecting the phosphorylation level of AP2M1 in cells, so as to screen candidate compounds.
# On the second day, each T25 flask was co-transfected with 16 µg of plasmids (1 µg of AAK1/HA/pIRES and 15 µg of Flag/AP2MI/pcDNA) using a Lip2000 transfection reagent. On the third day, the cells were digested and resuspended, centrifuged at 1000 rpm for 5 minutes, and then seeded into 24-well plates at 450 µl per well (2 × 10^5 cells/well). Gradient dilutions of the compounds to be tested were prepared, 50 µl was added to each well, mixed thoroughly, and incubated at 37°C for 3 h. DMSO was set as a control, and cells without plasmid transfection were set as a blank control. After incubation, the cells were collected and washed twice with PBS. The cells were lysed on ice for 30 minutes using a cell lysis buffer containing the protease inhibitor PMSF. The concentration of protein samples was determined using a BCA kit. Protein electrophoresis: The voltage for the stacking gel was set at 60 V, and that for the separating gel was set at 120 V. After electrophoresis, electrotransfer was initiated. Electrotransfer conditions were set at 250 mA for 2 h. Blocking with 5% BSA was performed for 1 h. A specific primary antibody, anti-p-AP2M1, was added, and incubation was carried out overnight at 4°C on a shaker. Washing with TBST was conducted 4 times, with 2.5 minutes each time. A secondary antibody was incubated on a shaker at room temperature for 1 h. Washing with TBST was conducted 4 times, with 2.5 minutes each time. ECL was used for development to detect the expression level of p-AP2M1. Western blot bands were processed and converted using Image J and GraphPad software to calculate IC50.
# IC50 (half maximal inhibitory concentration) refers to the half-inhibitory concentration of the measured antagonist. It can indicate the concentration of a certain drug or substance (inhibitor) that achieves half of the inhibition effect on certain biological processes (or certain substances involved in these processes, such as enzymes, cellular receptors, or microorganisms).
# [5] = test system: streptozotocin (STZ)-induced peripheral neuropathic pain (DPNP) in diabetic rat models; test: Efficacy test in diabetic peripheral neuropathic pain (DPNP), Von Frey pain threshold; format: in vivo, SD rats
# Protocol: Experimental methods: After the adaptation period, the rats were tested for baseline plantar pain threshold using the Von Frey (Up-Down method) before modeling. Subsequently, except for the blank control group, all other rats were fasted for 16 hours with free access to water and then intraperitoneally injected with streptozotocin for modeling (65 mg/kg; 2 mL/kg). One week after modeling, blood was collected from the tail tip to detect blood glucose levels after a 4-hour fast. Rats with blood glucose levels higher than 16.7 mmol/L were considered diabetic.
# [6] = Blood-brain distribution in DPNP model rats; conditions: 1 mg/kg
# Protocol: Experimental objective: This experiment aims to investigate the analgesic effect of test compounds on streptozotocin (STZ)-induced peripheral neuropathic pain (DPNP) in diabetic rat models and the brain-blood distribution of the compounds associated with the efficacy, via single oral gavage (ig.) administration.
# After successful modeling, the baseline plantar pain threshold of the rats was tested using the Von Frey (UP-Down method) as the baseline pain threshold before administration, and the rats were evenly grouped according to their pain thresholds. The groups included a blank control group, a model group, a positive control group (1 mg/kg), a Compound 26 (0.5 mg/kg) group, and a Compound 26 (1 mg/kg) group. The next day, the rats were administered the vehicle or corresponding drugs. At 2 h, 3 h, 4 h, 5 h, and 6 h after administration, the pain threshold of the plantar region on the affected side of rats was determined using Von Frey filaments to calculate the pain threshold improvement rate of the test compounds against neuropathic pain in diabetic rats, and to observe the time-effect relationship. After the experiment, rats from groups G3-G5 (numbers 1-3 per group) were sacrificed, and plasma and brain tissue samples were collected for testing.
# [7] = DPNP model rats, 6 h after intragastric administration
# T1 sequence (Q2M2I8 30-330): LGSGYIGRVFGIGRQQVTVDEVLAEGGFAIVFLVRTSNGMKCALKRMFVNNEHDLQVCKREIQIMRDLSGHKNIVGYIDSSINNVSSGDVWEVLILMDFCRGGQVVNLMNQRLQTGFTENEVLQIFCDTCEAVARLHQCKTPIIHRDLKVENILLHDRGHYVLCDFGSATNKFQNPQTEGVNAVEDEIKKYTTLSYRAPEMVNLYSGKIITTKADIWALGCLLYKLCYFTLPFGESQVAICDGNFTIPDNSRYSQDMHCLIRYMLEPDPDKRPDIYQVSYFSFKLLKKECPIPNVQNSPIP
# T2 sequence (Q2M2I8 whole entry): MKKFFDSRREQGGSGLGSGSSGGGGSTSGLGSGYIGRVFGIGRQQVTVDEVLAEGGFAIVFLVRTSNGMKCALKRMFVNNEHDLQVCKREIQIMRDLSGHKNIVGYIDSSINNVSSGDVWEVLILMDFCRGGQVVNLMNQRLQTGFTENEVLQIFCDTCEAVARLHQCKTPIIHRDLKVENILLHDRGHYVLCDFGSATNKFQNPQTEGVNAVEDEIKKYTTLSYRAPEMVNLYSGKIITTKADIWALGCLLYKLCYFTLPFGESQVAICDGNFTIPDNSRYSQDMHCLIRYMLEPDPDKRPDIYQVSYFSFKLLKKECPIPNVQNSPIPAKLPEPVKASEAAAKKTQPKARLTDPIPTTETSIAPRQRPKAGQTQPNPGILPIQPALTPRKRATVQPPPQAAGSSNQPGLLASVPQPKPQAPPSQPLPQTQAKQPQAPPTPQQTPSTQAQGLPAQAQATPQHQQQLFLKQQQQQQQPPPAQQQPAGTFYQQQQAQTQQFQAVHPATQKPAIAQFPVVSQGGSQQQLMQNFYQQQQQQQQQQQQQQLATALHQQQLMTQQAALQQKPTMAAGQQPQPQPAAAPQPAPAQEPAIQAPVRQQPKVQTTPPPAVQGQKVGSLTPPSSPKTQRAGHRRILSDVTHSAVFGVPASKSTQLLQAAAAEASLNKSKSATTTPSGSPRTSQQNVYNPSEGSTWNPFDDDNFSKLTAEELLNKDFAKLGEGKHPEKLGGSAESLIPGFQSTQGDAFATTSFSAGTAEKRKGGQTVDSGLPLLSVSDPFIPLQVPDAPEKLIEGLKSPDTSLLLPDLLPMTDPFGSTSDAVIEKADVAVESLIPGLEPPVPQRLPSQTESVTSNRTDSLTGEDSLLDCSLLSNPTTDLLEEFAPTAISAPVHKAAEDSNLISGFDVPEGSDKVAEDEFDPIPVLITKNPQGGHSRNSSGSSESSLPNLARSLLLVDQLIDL
smiles,measurement,setting,value
"CC(C)C[C@](C)(N)COc1ccc(-c2ccnc(C(F)F)c2)nc1C(F)F [BMS-986176, reference compound]",IC50,[1],260 nM
same,EC50,[2],100 to 1000 nM
same,AUC(0-inf),[3],1160 ng·h/mL
same,AUC(0-t),[3],1070 ng·h/mL
same,Cmax,[3],85.6 ng/mL
same,MRT inf,[3],9.5 h
same,MRT last,[3],7.52 h
same,Tmax,[3],3.33 h
same,half-life,[3],6.32 h
same,IC50,[4],100 to 1000 nM
same,MWT (g) After modeling,"[5]; 1 mg/kg group, after modeling, before administration, x±s, n=5",7.00 ± 1.83 g
same,Pain threshold improvement rate 2h,"[5]; 1 mg/kg single ig., 2 h",64.51
same,MWT (g) 2h,"[5]; 1 mg/kg single ig., 2 h after administration, x±s, n=5",10.38 ± 2.59 g
same,Pain threshold improvement rate 3 h,"[5]; 1 mg/kg single ig., 3 h",42.24
same,MWT (g) 3 h,"[5]; 1 mg/kg single ig., 3 h after administration, x±s, n=5",7.51 ± 4.29 g
same,Pain threshold improvement rate 4h,"[5]; 1 mg/kg single ig., 4 h",20.35
same,MWT (g) 4 h,"[5]; 1 mg/kg single ig., 4 h after administration, x±s, n=5",5.06 ± 2.76 g
same,Pain threshold improvement rate 5 h,"[5]; 1 mg/kg single ig., 5 h",16.32
same,MWT (g) 5 h,"[5]; 1 mg/kg single ig., 5 h after administration, x±s, n=5",4.82 ± 1.07 g
same,Pain threshold improvement rate 6h,"[5]; 1 mg/kg single ig., 6 h",20.85
same,MWT (g) 6h,"[5]; 1 mg/kg single ig., 6 h after administration, x±s, n=5",4.63 ± 0.64 g
same,duration of analgesia,"[5]; 1 mg/kg, time after administration",≤ 4 h
same,Brain tissue concentration,[6]; [7],26.94 ng/mL
same,Brain tissue concentration*,[6]; [7],296.36 ng/g
same,Plasma concentration,[6]; [7],34.38 ng/mL
same,Kp at 6 h,"[6]; rat, brain, po",8.62
Cc1nc2ccnn2c(-c2ccc(OC[C@@](C)(N)CC(C)C)c(C(F)F)n2)c1F [Compound 20],IC50,[1],102 nM
same,EC50,[2],10 to 100 nM
same,IC50,[4],10 to 100 nM
"COc1ccnc2[nH]cc(-c3ccc(OC[C@](C)(N)CC(C)C)c(C(F)F)n3)c12 [Compound 17, (R)-1-{[2-(difluoromethyl)-6-(4-methoxy-1H-pyrrolo[2,3-b]pyridin-3-yl)pyridin-3-yl]oxy}-2,4-dimethylpentan-2-amine]",IC50,[1],56.9 nM
same,EC50,[2],10 to 100 nM
same,IC50,[4],100 to 1000 nM

# — patent EP4692089A1, “NITROGEN-CONTAINING HETEROCYCLIC COMPOUND AS AAK1 INHIBITOR” (Alicorn Pharmaceutical Co., Ltd., priority 2023, dated 2024)
